From patent publication US20060021470A1, “Compositions for enhancing biological functions in organisms” (priority 2004, published 2006)

System: ech42 (42-kDa endochitinase-encoding) gene expression
Test: ech42 endochitinase promoter:gfp induction in T. atroviride strain P1
Type: cell-based
Details: endochitinase promoter:gfp fluorescence in Trichoderma strain P1
Excerpt: To monitor chitinase expression during mycoparasitism of Trichoderma atroviride (formerly T. harzianum) strain P1 in situ, the strain was transformed with plasmids containing fusions of green fluorescent protein (“gfp”) to the 5-regulatory sequences of the T. atroviride nag1 gene (N-acetyl-beta-D-glucosaminidase-encoding) or ech42 (42-kDa endochitinase-encoding) genes. Confronting these strains with the target Rhizoctonia solani led to induction of gene expression before (ech42) or after (nag 1) physical contact. […] The chitinase inhibitor allosamidin blocked ech42 expression and reduced inhibition of R. solani growth during confrontation. […] T. atroviride, T. harzianum, and any other species of Trichoderma produce small quantities of particular enzymes constitutively. […]
The ability of Trichoderma to release elicitor compounds from the various target fungi was measured by induction of gfp in the endochitinase promoter labeled P1 strain of Trichoderma. […]
In subsequent experiments, the release of elicitors from cell walls of some of the same fungi and Oomycetes tested above using enzymes (endochitinase, glucanase, exochitinase, mixed cellulase) purified from T. atroviride was assessed. Again, the elicitation abilities of the materials were assessed with Trichoderma strain P1 transformed to contain the endochitinase promoter:gfp construct. […]

Chitobiose
elicitor activity: least effective
